{
  "source": "paper PMC4943339",
  "about": "(Molecular pharmaceutics, 2015)",
  "test": "Pharmacokinetics of vancomycin after i.v. or pulmonary",
  "settings": "rabbits, 1 mg/kg i.v. bolus, plasma, LC/MS, non-compartmental, average ± S.D., n = 3; SD",
  "data": [
    {"smiles": "CN[C@H](CC(C)C)C(=O)N[C@H]1C(=O)N[C@@H](CC(N)=O)C(=O)N[C@H]2C(=O)N[C@H]3C(=O)N[C@H](C(=O)N[C@H](C(=O)O)c4cc(O)cc(O)c4-c4cc3ccc4O)[C@H](O)c3ccc(c(Cl)c3)Oc3cc2cc(c3O[C@@H]2O[C@H](CO)[C@@H](O)[C@H](O)[C@H]2O[C@H]2C[C@](C)(N)[C@H](O)[C@H](C)O2)Oc2ccc(cc2Cl)[C@H]1O", "note": "[vancomycin]", "values": [
      {"measurement": "AUC(0-∞)", "value": "12135.34 ± 616.52", "unit": "ng·h/mL"},
      {"measurement": "AUClast", "value": "12069.85 ± 638.15", "unit": "ng·h/mL"},
      {"measurement": "C0", "value": "5347 ± 4927", "unit": "ng/mL"},
      {"measurement": "Clearance", "value": "1.376 ± 0.0708", "unit": "mL/min/kg"},
      {"measurement": "Cmax", "value": "3330 ± 1119", "unit": "ng/mL"},
      {"measurement": "Half-Life", "value": "3.38 ± 0.43", "unit": "h"},
      {"measurement": "Tmax", "value": "0.67 ± 0.29", "unit": "h"},
      {"measurement": "Volume of Dist.", "value": "0.40389 ± 0.06483", "unit": "L/kg"}
    ]}
  ]
}
